# From patent EP3878460A1, “GREEN TEA EXTRACT HAVING MODIFIED CONSTITUENT CONTENT AND COMPOSITION COMPRISING SAME” (priority 2018, dated 2020)
# Columns and labels:
# [1] = test system: hepatocytes (HepG2 cells); experiment: Hepacytotoxicity, cell viability by MTS assay
# Method: In order to investigate the hepatotoxicity of the high-temperature-processed green tea extract obtained in Example 1 (sample 2), hepatocytes (HepG2 cells) acquired from Korean Cell Line Bank were seeded onto a 96-well plate (Falcon) with 1×10^5 cells per well and cultured for 24 hours in a 5% CO2 incubator at 37 °C. Then, after treating with the sample 1 or sample 2 at 5, 10, 25, 50 or 100 µg/mL and culturing further for 24 hours, the medium was removed and cell viability was investigated using a CellTiter 96 AQueous One Solution cell proliferation assay kit (MTS, Promega Co. Madison, WI, USA). After treating the cells with 20 µL of a CellTiter 96 AQueous One Solution cell proliferation assay kit (MTS, Promega Co. Madison, WI, USA) solution added to 100 µL of RPMI1640 (Lonza), the number of live cells was quantified by measuring absorbance at 490 nm. The cell number or cell viability (%) was calculated by the following equation. Cell viability (%) = (absorbanceofsample-treatedgroup−absorbanceofreagentalone)/(absorbanceofnon-treatedgroup−absorbanceofreagentalone) × 100 [formula]
# After treating the cells with 20 µL of a CellTiter 96 AQueous One Solution cell proliferation assay kit (MTS, Promega Co. Madison, WI, USA) solution added to 100 µL of RPMI1640 (Lonza), the number of live cells was quantified by measuring absorbance at 490 nm. The cell number or cell viability (%) was calculated as described in Test Example 1.
# [2] = test system: hepatocytes (HepG2 cells); assay type: cell-based, human
# Method: The experimental condition was the same as in Test Example 1. After treating the cells with the sample 1 or sample 2, the levels of malate dehydrogenase 1 (MDH 1), α-glutathione S-transferase (GSTα) and sorbitol dehydrogenase (SDH) in the cell culture were measured 24 later.
# In order to investigate the effect of the EGCG, GCG and EGC among the eight catechins on hepatocyte damage, release of enzymes from hepatocytes due to hepatocyte damage was analyzed using the MILLIPLEX Analyst software (Millipore). The experimental condition was the same as in Test Example 3. After treating the cells with EGCG, GCG or EGC, the levels of malate dehydrogenase 1 (MDH 1), α-glutathione S-transferase (GSTα) and sorbitol dehydrogenase (SDH) in the cell culture were measured 24 later.
# [3] = test system: HepG2 human liver cancer cells; experiment: Inhibition of lipid accumulation in hepatocytes (Oil Red O staining, stearic acid load); assay type: cell-based; settings: 100 µM stearic acid, 48 hours, FIG. 8
# Method: In order to investigate the effect of inhibiting lipid accumulation in hepatocytes of the green tea extract sample 1 and sample 2 of Example 1, the inhibition of fat accumulation was compared after culturing HepG2 human liver cancer cells and treating with each sample.
# Specifically, hepatocytes (HepG2 cells) were seeded onto a 12-well plate (Falcon) with 1×10^6 cells per well and cultured in a 5% CO2 incubator at 37 °C for 24 hours. Then, after treating with each of the sample 1 and the sample 2 at 3, 10 or 30 µg/mL and 100 µM stearic acid conjugated with bovine serum albumin (BSA), the cells were cultured for 48 hours. After removing the medium and washing with PBS, the cells were fixed with 4% formaldehyde. After incubating with 100% propylene glycol for 5 minutes, the fat in the cells was stained by adding 500 µL of Oil Red O solution (Sigma) per well and culturing the cells for 2 hours. […] After transferring 200 µL of the isopropanol solution to a 96-well plate, the fat accumulated in the cells was quantified by measuring absorbance at 485 nm. The Oil Red O content (%) relative to a control group (0.1% (v/v) DMSO) was calculated by the following equation. Oil red O content (%) = (absorbanceofsample-treatedgroup−absorbanceofcontrolgroup) × 100 [formula] […]
# [4] = HepG2 cells, 10, 50, 100 or 200 µM, 24 hours, calculated from cell viability
Compound,"LD50 [1, 4]",further results
"Oc1cc(O)c2c(c1)O[C@H](c1cc(O)c(O)c(O)c1)[C@H](O)C2 [EGC, epigallocatechin]",183.9 µM,"hepacytotoxicity among the eight catechins [1]: highest hepacytotoxicity; levels of the three enzymes (MDH 1, GSTα, SDH) in the cell culture [2]: highest"
"Oc1cc(O)c2c(c1)O[C@H](c1cc(O)c(O)c(O)c1)[C@@H](O)C2 [GC, gallocatechin]",236.2 µM,–
epicatechin 3-O-gallate [ECG],209.0 µM,–
"O=C(O[C@@H]1Cc2c(O)cc(O)cc2O[C@H]1c1cc(O)c(O)c(O)c1)c1cc(O)c(O)c(O)c1 [GCG, gallocatechin gallate]",212.7 µM,effect of inhibiting lipid accumulation in hepatocytes compared to EGCG at the same concentration [3]: remarkably excellent effect of inhibiting lipid accumulation in hepatocytes
"Oc1cc(O)c2c(c1)O[C@H](c1ccc(O)c(O)c1)[C@H](O)C2 [EC, (-)epicatechin]",–,"LD50 ([1]; human, 24 h): 505.0 µM"
"O=C(O[C@@H]1Cc2c(O)cc(O)cc2O[C@@H]1c1cc(O)c(O)c(O)c1)c1cc(O)c(O)c(O)c1 [EGCG, epigallocatechin gallate]",355.5 µM,–
